Values of other authors as cited in US12471595B2, “Liquid pesticidal composition” (SUMITOMO CHEMICAL COMPANY, LIMITED, priority 2019, dated 2025).

Experiments:
[1] = pH7
[2] = 1-octanol/water

Structure (SMILES): CON(C(=O)c1cn(C)nc1C(F)F)C(C)Cc1c(Cl)cc(Cl)cc1Cl (stereo not shown) [Pydiflumetofen]
- Water solubility at 25° C. [1]: 1.5 mass ppm
- log P at 25° C. [2]: 3.8

Structure (SMILES): CCOC(=O)COc1ncccc1Oc1cc(-n2c(=O)cc(C(F)(F)F)n(C)c2=O)c(F)cc1Cl [Compound A, Ethyl 2-[(3-{2-chloro-4-fluoro-5-[3-methyl-4-(trifluoromethyl)-2,6-dioxo-1,2,3,6-tetrahydropyrimidin-1(2H)-yl]phenoxy}pyridin-2-yl)oxy]acetate]
- Water solubility at 25° C. [1]: 2.0 mass ppm
- log P at 25° C. [2]: 3.5

Structure (SMILES): Cc1nnc(Cl)c(-c2c(F)cccc2F)c1-c1ccccc1 [Pyridachlometyl]
- Water solubility at 25° C. [1]: 0.6 mass ppm
- log P at 25° C. [2]: 4.1

Structure (SMILES): CC(O)(Cn1cncn1)c1ccc(Oc2ccc(Cl)cc2)cc1C(F)(F)F (stereo not shown) [Mefentrifluconazole]
- Water solubility at 25° C. [1]: 0.81 mass ppm
- log P at 25° C. [2]: 3.4

Structure (SMILES): COC(=O)N(OC)c1ccccc1COc1ccn(-c2ccc(Cl)cc2)n1 [Pyraclostrobin]
- Water solubility at 25° C. [1]: 1.9 mass ppm
- log P at 25° C. [2]: 4.0
